EP4570800A1, “CRYSTAL FORM OF PYRIDINOPYRIMIDINONE COMPOUND, ACID SALT THEREOF, CRYSTAL FORM OF ACID SALT THEREOF, AND USE” (Wuhan Humanwell Innovative Drug Research and Development …, priority 2022, dated 2024)
Where a name gives a salt, the structure may show the parent alone.

What was measured:
[1] = Solid state stability (XRPD and HPLC); type: physicochemical
Method: The purity test, dynamic solubility test, and stability test in the assay were measured with an Agilent 1260 high-performance liquid chromatograph, and the salt formation molar ratio of ions was tested by ion chromatography, and the analytical conditions are shown in Table 5 and Table 6.
Table 56 Summary of solid state stability evaluation

[2] = Dynamic solubility in water, SGF, FaSSIF and FeSSIF; settings: for S: solubility: 37°C, solid feed concentration 10 mg/mL; for pH: pH value of the filtrate
Method: 100 mg of NaCl and 50 mg of Triton X-100 were weighed into a 50 mL volumetric flask, and purified water was added to complete dissolution. 816 µL of 1 M hydrochloric acid was added thereto, and the pH was adjusted to 1.8 with 1 M hydrochloric acid or 1 M NaOH solution. Purified water was added to make up to volume.
340 mg of anhydrous NaH2PO4, 42 mg of NaOH, and 620 mg of NaCl were weighed into a 100 mL volumetric flask. Purified water was added to complete dissolution. The pH was adjusted to 6.5 with 1 M hydrochloric acid or 1 M NaOH solution. Purified water was added to make up to volume. 110 mg of SIF powder was then weighed into a 50 mL volumetric flask, added with the above solution to complete dissolution and make up to volume.
About 90 mL of purified water was added to complete dissolution, and the pH was adjusted to 5.0 with 1 M hydrochloric acid or 1 M NaOH solution. Purified water was added to make up to volume. 560 mg of SIF powder was then weighed into a 50 mL volumetric flask, added with the above solution to complete dissolution and make up to volume.
Rotating mixing was carried out at 37°C at a solid feed concentration of 10 mg/mL (calculated as the compound of formula I). […] After sampling at each time point, the samples were centrifuged (10000 rpm) and filtered (0.45 µm PTFE filter head), and the HPLC concentration and pH value of the filtrate were measured.

[3] = tested on: Mia Paca-2 pancreatic cancer; assay: In vivo efficacy test on Mia Paca-2 pancreatic cancer; parameters: species or system mice; settings: Mia Paca-2, BID
Method: (§1) After one week of adaptive feeding of mice, Mia Paca-2 cells in a logarithmic phase were resuspended in serum-free DMEM, and then mixed with Matrigel in a ratio of 1: 1. 1 × 10^7 Mia Paca-2 cells were inoculated subcutaneously at the right flank at 100 µL per mouse, and tumor growth was observed regularly. When the tumor grew to an average volume of 150 to 200 mm^3, the mice were randomly divided into a model group and an administration group (single drug, in combination with trametinib) based on the tumor size and body weight. The tumor size and body weight were measured and recorded before and during the administration. After the treatment, the tumor size in the model group was compared with that in the administration group to determine the efficacy.

LOVO colorectal cancer = assay: In vivo efficacy test on LOVO colorectal cancer; parameters: species or system mice; settings: 50 mg/kg, BID
Method: as §1, with “LOVO” for “Mia Paca-2”, “F12K, 5” for “DMEM, and then mixed with Matrigel in a ratio of 1: 1. 1”, “10^6 LOVO” for “10^7 Mia Paca-2”, “group” for “group (single drug, in combination with trametinib)”

[4] = XRPD after 25°C/60%RH/open, 1 week
[5] = XRPD after 40°C/75%RH/open, 1 week

Row | Compound | HPLC results Purity (area%) ([1]; 25°C/60%RH/open, 1 week) | HPLC results Purity (area%) ([1]; 40°C/75%RH/open, 1 week) | HPLC results Purity (area%) ([1]; Onset) | Crystal form [1, 4] | Crystal form [1, 5] | S: solubility ([2]; FaSSIF, 1 hour, 60 min) [µg/mL] | S: solubility ([2]; FaSSIF, 4 hours, 240 min) [µg/mL] | S: solubility ([2]; FaSSIF, 24 hours, 1440 min) [µg/mL] | S: solubility ([2]; H2O, 1 hour, 60 min) [µg/mL] | S: solubility ([2]; H2O, 4 hours, 240 min) [µg/mL] | S: solubility ([2]; H2O, 24 hours, 1440 min) [µg/mL] | S: solubility ([2]; SGF, 1 hour, 60 min) [µg/mL] | S: solubility ([2]; SGF, 4 hours, 240 min) [µg/mL] | S: solubility ([2]; SGF, 24 hours, 1440 min) [µg/mL] | pH ([2]; FaSSIF, 1 hour) | pH ([2]; FaSSIF, 4 hours) | pH ([2]; FaSSIF, 24 hours) | pH ([2]; FeSSIF, 1 hour) | pH ([2]; FeSSIF, 4 hours) | pH ([2]; FeSSIF, 24 hours) | also measured
1 | Cc1nc(N[C@H](C)c2cccc(S(F)(F)(F)(F)F)c2)c2cn(C3(CF)CC3)c(=O)cc2n1 [Crystal form A of methanesulfonate salt] | 99.21 | 99.26 | 99.18 | Crystal form A of methanesulfonate salt | Crystal form A of methanesulfonate salt | 1440 | 1610 | 1830 | 10250 | 10160 | 9920 | 9760 | 9880 | 10130 | 4.3 | 4.4 | 4.0 | 4.8 | 4.8 | 4.8 | S: solubility ([2]; FeSSIF, 1 hour, 60 min): 4040 µg/mL; S: solubility ([2]; FeSSIF, 4 hours, 240 min): 4160 µg/mL; S: solubility ([2]; FeSSIF, 24 hours, 1440 min): 4240 µg/mL; pH ([2]; H2O, 1 hour): 3.5; pH ([2]; H2O, 4 hours): 3.5; pH ([2]; H2O, 24 hours): 3.1; pH ([2]; SGF, 1 hour): 1.7; pH ([2]; SGF, 4 hours): 1.8; pH ([2]; SGF, 24 hours): 1.6
2 | CC(=O)Nc1cccc(-n2c(=O)n(C3CC3)c(=O)c3c(Nc4ccc(I)cc4F)n(C)c(=O)c(C)c32)c1 [Trametinib] | – | – | – | – | – | – | – | – | – | – | – | – | – | – | – | – | – | – | – | – | Average tumor weight at the end of the treatment ([3]; 0.125 mg/kg): 0.22 g
3 | Cc1nc(N[C@H](C)c2cccc(C(F)F)c2F)c2cn(C3(C(F)F)CC3)c(=O)cc2n1 [Control compound 2, reference compound] | – | – | – | – | – | – | – | – | – | – | – | – | – | – | – | – | – | – | – | – | Average tumor weight at the end of the treatment ([3]; 50 mg/kg): 0.46 g; At the end of treatment Average tumor weight (LOVO colorectal cancer): 1.08 g
4 | Cc1nc(N[C@H](C)c2cccc(S(F)(F)(F)(F)F)c2)c2cn(C3(CF)CC3)c(=O)cc2n1 [Crystal form B of citrate salt] | 99.00 | 99.01 | 98.92 | Crystal form A of citrate salt | Crystal form A of citrate salt | 790 | 1180 | 1610 | 3610 | 3600 | 3680 | 9130 | 9400 | 9290 | 4.5 | 3.9 | 3.6 | 4.8 | 4.6 | 4.5 | S: solubility ([2]; FeSSIF, 1 hour, 60 min): 4090 µg/mL; S: solubility ([2]; FeSSIF, 4 hours, 240 min): 3520 µg/mL; S: solubility ([2]; FeSSIF, 24 hours, 1440 min): 2960 µg/mL; pH ([2]; H2O, 1 hour): 3.5; pH ([2]; H2O, 4 hours): 3.5; pH ([2]; H2O, 24 hours): 3.3; pH ([2]; SGF, 1 hour): 2.5; pH ([2]; SGF, 4 hours): 2.6; pH ([2]; SGF, 24 hours): 2.4
5 | Cc1nc(N[C@H](C)c2cccc(S(F)(F)(F)(F)F)c2)c2cn(C3(CF)CC3)c(=O)cc2n1 [Crystal form A of fumarate salt] | 98.67 | 98.70 | 98.67 | Crystal form A of fumarate salt | Crystal form A of fumarate salt | 360 | 320 | 320 | 550 | 570 | 610 | 1960 | 1940 | 2090 | 4.8 | 4.6 | 4.3 | 4.6 | 4.8 | 4.7 | pH ([2]; H2O, 1 hour): 4.2; pH ([2]; H2O, 4 hours): 4.2; pH ([2]; H2O, 24 hours): 4.1; pH ([2]; SGF, 1 hour): 1.8; pH ([2]; SGF, 4 hours): 2.0; pH ([2]; SGF, 24 hours): 1.7
6 | Cc1nc(N[C@H](C)c2cccc(S(F)(F)(F)(F)F)c2)c2cn(C3(CF)CC3)c(=O)cc2n1 [Crystal form A of ethanesulfonate salt] | 99.15 | 99.29 | 99.10 | Crystal form A of ethanesulfonate salt | Crystal form A of ethanesulfonate salt | 620 | 1610 | 2520 | 10060 | 9810 | 10080 | 10420 | 10130 | 10110 | 4.5 | 4.2 | 3.7 | 4.8 | 4.8 | 4.7 | S: solubility ([2]; FeSSIF, 1 hour, 60 min): 2790 µg/mL; S: solubility ([2]; FeSSIF, 4 hours, 240 min): 3620 µg/mL; S: solubility ([2]; FeSSIF, 24 hours, 1440 min): 3700 µg/mL; pH ([2]; H2O, 1 hour): 2.9; pH ([2]; H2O, 4 hours): 3.1; pH ([2]; H2O, 24 hours): 2.8; pH ([2]; SGF, 1 hour): 1.6; pH ([2]; SGF, 4 hours): 1.5; pH ([2]; SGF, 24 hours): 1.5
